Test results taken from patent publication US10144713B1, “Bis-cyclic guanidines as antibacterial agents” (UNIVERSITY OF SOUTH FLORIDA, priority 2017, dated 2018).

Tests used:
Assay type in all cases: cell-based
[1] = test system: P. aeruginosa (ATCC27853); test: MIC against P. aeruginosa; settings: Pseudomonas aeruginosa, ATCC27853; Gram −; 16 h, 37° C.
Method: (§1) Minimum Inhibitory Concentrations (MICs) Against Bacteria.
(§2) The antimicrobial activity of the compounds was tested on the following six bacteria strains: K. pneumoniae (ATCC 13383), P. aeruginosa (ATCC27853), E. coli (ATCC 25922), vancomycin-resistant Enterococcus faecalis(ATCC 700802), Methicillin-resistant S. aureus (MRSA, ATCC 33591), Methicillin-resistant S. epidermidis (MRSE, RP62A). The procedures were followed as reported previously (Hancock et al., Immunobiology 2006, 211, 315-322). Briefly, a single colony of each bacterium was inoculated in 3 mL TSB medium and incubated overnight at 37° C. Then the bacteria culture was diluted at 1:100 and the bacteria were allowed to grow to mid-logarithmic phase. Next, 50 μL of 2-fold serial dilutions of compounds (0.1-25 μg/mL) were added the 96-well plate containing aliquots of 50 μL of bacteria suspension (1×10^6 CFU/mL) in each well. The mixture was incubated at 37° C. for 16 h, and their absorption at 600 nm wavelength was read on a Biotek Synergy HT microtiter plate reader. […] The experiments were repeated at least three times with duplicates each time. HC50 means the concentration causing 50% hemolysis.

[2] = test system: K. pneumoniae (ATCC 13383); test: MIC against K. pneumoniae; settings: Klebsiella pneumoniae, ATCC13383; Gram −; 16 h, 37° C.
Method: as §1, §2

[3] = test system: Methicillin-resistant S. epidermidis (MRSE, RP62A); test: MIC against MRSE; settings: Staphylococcus epidermidis, MRSE; Gram +; 16 h, 37° C.
Method: as §1, §2

[4] = test system: vancomycin-resistant Enterococcus faecalis (ATCC 700802); test: MIC against VRE; settings: Gram +; 16 h, 37° C.
Method: as §1, §2

[5] = test system: human red blood cells (hRBCs); test: Hemolytic assay
Method: The freshly drawn, K2EDTA treated human red blood cells (hRBCs) were washed with 1×PBS buffer, and centrifuged at 3500 rpm for 10 min. The step was repeated until the supernatant became clear. The supernatant was removed, and the RBCs were diluted into 5% v/v suspension. 50 μL of the suspension was incubated with 50 μL of compounds of different concentrations at 37° C. for 1 h. The mixture was centrifuged at 3500 rpm for 10 min. Subsequently, to 30 μL of the supernatant 100 μL PBS was added, and the absorbance of the mixture at 540 nm was read on a Biotek Synergy HT plate reader. The positive control was 2% Triton X-100, and the negative control was 1×PBS alone. The hemolysis activity was calculated by the formula % hemolysis=(Abssample−AbsPBS)/(AbsTriton−AbsPBS)×100%. The experiment was repeated at least three times with duplicates each time.

[6] = test system: E. coli; test: Time-kill study; settings: 12.5 μg/mL
Method: The killing activity was monitored for the first 2 h. The concentrations for compound 11 were 2×MIC, 4×MIC, and 8×MIC, respectively.
Time-kill studies were conducted to investigate the bacterial killing kinetics of compounds 11 and 12 by using E. Coli. Briefly, the bacteria […] grew to mid-logarithmic phase in TSB medium, from which the suspension (10^6 CFU/ml) was made. The suspension was incubated with different concentrations of 11 or 12 for 10 min, 30 min, 1 h and 2 h respectively. The mixtures were diluted by 10^2 to 10^4 fold and spread on TSB agar plates. After incubation at 37° C. overnight, the colonies on the plates were counted and plotted against the incubation time. […] Cell colonies were counted in agar plates at 12.5, 25, and 50 μg/mL. Compound 11 at the concentration of 12.5 or 25 μg/mL completely removed all bacteria in 2 hours, and at 50 μg/mL it completely removed bacteria in 0.5 hour. Compound 12 killed E. Coli completely in 0.5 hour at the concentration of 12.5 μg/mL.

[7] = test system: E. coli biofilm; test: Biofilm formation inhibition (crystal violet), E. coli; settings: Escherichia coli
Method: Bacteria in biofilms are known to tolerate antibiotic treatment and are thus more difficult to eradicate than planktonic cells. Biofilms formed by MRSA and E. coli have frustrated the treatment of persistent bacterial infections. Compound 12 was evaluated for its ability to inhibit biofilm formation of MRSA and E. coli. Overnight grown bacteria were inoculated into fresh 10% of MHII broth at a ratio of 1:100. 100 μL of inoculated culture was incubated with appropriated amounts of compound 12 in wells of 96-well plate. The plate was incubated at 37° C. for overnight. Optical density of each well was recorded at the wavelength of 600 nm and then the biofilm biomass was recorded by the crystal violet method. Biofilm biomass was presented as CV OD/OD of growth. Relative biofilm biomass values were normalized by the biomass value of control (no addition of compound). Experiments were conducted in triplicate and the data were presented as mean±STDEV.

[8] = test system: six bacteria strains (K. pneumoniae, P. aeruginosa, E. coli, VRE, MRSA, MRSE); test: Antimicrobial activity on the panel of six bacteria strains
Method: as §1, §2

## CCCCCCN1C(=N)N(CC(=O)Nc2cccc(NC(=O)CN3C[C@H](Cc4ccccc4)N(CCCCCC)C3=N)c2)C[C@@H]1Cc1ccccc1 [Compound 12]
[1]
  MIC: 4 µg/mL
[2]
  MIC: 0.75 µg/mL
[3]
  MIC: 0.75 µg/mL
[4]
  MIC: 0.75 µg/mL
[5]
  selectivity, hemolytic activity against MIC values of MRSA: 1534 folds
[6]
  time to completely remove all bacteria: 0.5 h
[7]; 0.19 μg/mL
  inhibition at 0.19 µg/mL: 38%
[7]; 0.39 μg/mL
  inhibition at 0.39 µg/mL: ~90%
[8]
  antibacterial activity against the tested bacteria (in words): potent and broad-spectrum activity
[8]; read-out: MIC toward most strains
  MIC: 0.75 µg/mL
